We go through twelve compounds from PubChem BioAssay (NCI).

SMILES strings stand for the structures.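 All cell lines were grown in 96-well plates and treated with compound for 48 hours. Definition used: TGI = concentration required for complete inhibition of growth.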

Among the test systems are A549 NSCLC; ACHN renal; BT-549 breast; DU-145 prostate; EKVX NSCLC; HCT-116 colon; HS 578T breast; KM12 colon; M14 melanoma; OVCAR-4 ovarian; OVCAR-8 ovarian; PC-3 prostate; RPMI-8226 leukemia; SK-MEL-5 melanoma; SK-OV-3 ovarian; UACC-257 melanoma; UO-31 renal; MDA-MB-231 breast; RXF 393 renal; A498 renal.
Holding throughout (assay): NCI-60 cell line screen, 48 h

For `CC(=O)N/N=C1/CC[C@@]2(C)C(=CC[C@H]3C4CCC(C(C)CCCC(C)C)[C@@]4(C)CCC32)C1(C)C` (stereo partly specified), the TGI in the test on A549 NSCLC, in the test on ACHN renal, with BT-549 breast, in the test with DU-145 prostate, in the test with EKVX NSCLC and in the test on HCT-116 colon was more than 100 µM in each case. The TGI in the test on HS 578T breast, with KM12 colon, with M14 melanoma, in the test with OVCAR-4 ovarian, in the test on OVCAR-8 ovarian and in the test on PC-3 prostate was more than 100 µM in each case. In addition, the TGI with RPMI-8226 leukemia, in the test on SK-MEL-5 melanoma, in the test with SK-OV-3 ovarian, in the test with UACC-257 melanoma and with UO-31 renal was more than 100 µM throughout.

As for `CC(=O)OC1CC[C@@]2(C)C(C1)CC(OC(C)=O)[C@@H]1C2CC(OC(C)=O)[C@]2(C)C(C(C)CC=C(c3ccc(Cl)cc3)c3ccc(Cl)cc3)CCC12` (stereo partly specified), the TGI with A549 NSCLC, with ACHN renal, with EKVX NSCLC, in the test with HCT-116 colon, with HS 578T breast and with KM12 colon was more than 100 µM each time. Besides, the TGI in the test with M14 melanoma was more than 100 µM; in the test with MDA-MB-231 breast, more than 100 µM; in the test with OVCAR-4 ovarian it was more than 100 µM; in the test with OVCAR-8 ovarian it was more than 100 µM; in the test with PC-3 prostate, more than 100 µM; in the test on RPMI-8226 leukemia, 56.8 µM. Moreover, the TGI in the test on SK-MEL-5 melanoma, in the test with SK-OV-3 ovarian, in the test on UACC-257 melanoma and in the test with UO-31 renal was more than 100 µM throughout.

For `CN(NC(=O)/C(=C\c1ccco1)NC(=O)c1ccccc1)c1cn[nH]c(=O)c1Cl`, the TGI in the test on A549 NSCLC, in the test with ACHN renal, in the test on DU-145 prostate, in the test with EKVX NSCLC, in the test on HCT-116 colon and in the test with HS 578T breast was more than 100 µM each time. Also, the TGI with KM12 colon, in the test with M14 melanoma, with MDA-MB-231 breast, with OVCAR-4 ovarian, in the test on OVCAR-8 ovarian and in the test with PC-3 prostate was more than 100 µM in each case. In addition, the TGI in the test on RPMI-8226 leukemia is 50.5 µM; in the test with RXF 393 renal, more than 100 µM; in the test on SK-MEL-5 melanoma, 94.9 µM; in the test with SK-OV-3 ovarian it was more than 100 µM; in the test on UACC-257 melanoma, more than 100 µM; with UO-31 renal it was more than 100 µM.

Consider `CC1(C)N=C(C(=O)c2ccccc2)N(O)C1(O)c1ccccc1` (stereo unspecified), for which the TGI with A549 NSCLC, with ACHN renal, in the test with DU-145 prostate, in the test with EKVX NSCLC, with HCT-116 colon and in the test on HS 578T breast was more than 100 µM throughout. The TGI in the test with KM12 colon, in the test on M14 melanoma, in the test with MDA-MB-231 breast, in the test on OVCAR-4 ovarian, in the test with OVCAR-8 ovarian and in the test with PC-3 prostate was more than 100 µM in each case. Besides, the TGI in the test with RPMI-8226 leukemia, in the test with RXF 393 renal, in the test with SK-MEL-5 melanoma, with SK-OV-3 ovarian, in the test on UACC-257 melanoma and with UO-31 renal was more than 100 µM each time.

In the case of `CC(=O)c1sc(Nc2ccc(Cl)c(Cl)c2)nc1C`, the TGI in the test with A498 renal, with A549 NSCLC, in the test on ACHN renal, in the test on BT-549 breast, with DU-145 prostate and with EKVX NSCLC was more than 100 µM throughout. The TGI with HCT-116 colon, with KM12 colon, in the test with MDA-MB-231 breast, in the test on OVCAR-4 ovarian, in the test on OVCAR-8 ovarian and with RPMI-8226 leukemia was more than 100 µM in each case. For the same compound, the TGI with RXF 393 renal, in the test with SK-MEL-5 melanoma, in the test with SK-OV-3 ovarian, in the test on UACC-257 melanoma and in the test with UO-31 renal was more than 100 µM throughout.

On to `C/C(=N\Nc1nc2ccccc2o1)c1cc(C)ncn1`, for which the TGI was more than 100 µM in the test with A498 renal; more than 39 µM in the test on A549 NSCLC; 29.3 µM with ACHN renal; more than 100 µM with BT-549 breast; more than 100 µM in the test with DU-145 prostate; 2.95 µM in the test with EKVX NSCLC. Besides, the TGI with HCT-116 colon was more than 100 µM; in the test on KM12 colon, 11.7 µM; with M14 melanoma it was more than 34.7 µM; in the test on MDA-MB-231 breast it was 75 µM; in the test with OVCAR-4 ovarian, 27.5 µM; in the test with OVCAR-8 ovarian it was 0.0519 µM. Moreover, the TGI in the test on PC-3 prostate was more than 100 µM; in the test on RPMI-8226 leukemia, more than 100 µM; with RXF 393 renal, 32.1 µM; in the test with SK-MEL-5 melanoma, 14.3 µM; in the test on SK-OV-3 ovarian, 2.5 µM; with UO-31 renal, 0.311 µM.

Consider `CCCC(=O)Oc1ccc2c(C)cc(=O)oc2c1OC(=O)CCC`, for which the TGI in the test with A498 renal, with A549 NSCLC, in the test with ACHN renal, with DU-145 prostate, in the test on EKVX NSCLC and in the test with HCT-116 colon was more than 100 µM throughout. The TGI in the test on HS 578T breast, in the test on KM12 colon, in the test on M14 melanoma, in the test with MDA-MB-231 breast, in the test on OVCAR-4 ovarian and with OVCAR-8 ovarian was more than 100 µM throughout. Besides, the TGI with PC-3 prostate, with RPMI-8226 leukemia, with SK-MEL-5 melanoma, with SK-OV-3 ovarian, in the test on UACC-257 melanoma and in the test with UO-31 renal was more than 100 µM each time.

Consider `COc1ccc(N=Nc2ccc3oc(=O)c(C(=O)Nc4ccc(Cl)cc4)cc3c2)cc1`, for which the TGI in the test with A498 renal, in the test with ACHN renal, with DU-145 prostate, in the test with EKVX NSCLC, with HS 578T breast and in the test on KM12 colon was more than 10 µM in each case. The TGI with M14 melanoma, in the test with MDA-MB-231 breast, in the test on OVCAR-4 ovarian, with OVCAR-8 ovarian, in the test with PC-3 prostate and with RPMI-8226 leukemia was more than 10 µM throughout. Moreover, the TGI in the test with RXF 393 renal, in the test on SK-MEL-5 melanoma, in the test with SK-OV-3 ovarian, in the test on UACC-257 melanoma and in the test on UO-31 renal was more than 10 µM throughout.

For the compound `C[C@@H]1OC(=O)C[C@H]2CC(=O)N(CCC3CN(S(=O)(=O)C(F)(F)F)c4ccccc43)C[C@@H]21` (stereo partly specified), the TGI with A498 renal, in the test with A549 NSCLC, with ACHN renal, in the test on DU-145 prostate, in the test on EKVX NSCLC and with HCT-116 colon was more than 100 µM in each case. Besides, the TGI in the test with HS 578T breast, with KM12 colon, with M14 melanoma, in the test on MDA-MB-231 breast, in the test on OVCAR-4 ovarian and in the test on PC-3 prostate was more than 100 µM in each case. Besides, the TGI in the test with RPMI-8226 leukemia, in the test with RXF 393 renal, in the test on SK-MEL-5 melanoma, with SK-OV-3 ovarian, with UACC-257 melanoma and in the test on UO-31 renal was more than 100 µM each time.

As for `C[C@H](CCC(=O)O)[C@H]1CC[C@H]2[C@@H]3[C@H](O)C[C@@H]4C[C@H](O)CC[C@]4(C)[C@H]3CC[C@]12C`, the TGI in the test with A498 renal, with A549 NSCLC, with ACHN renal, in the test on BT-549 breast, in the test on DU-145 prostate and in the test on EKVX NSCLC was more than 100 µM in each case. Moreover, the TGI was more than 100 µM in the test on HCT-116 colon; more than 100 µM in the test on KM12 colon; 85.2 µM in the test with M14 melanoma; more than 100 µM in the test with MDA-MB-231 breast; more than 100 µM with OVCAR-4 ovarian; 37.7 µM in the test on OVCAR-8 ovarian. Also, the TGI in the test on PC-3 prostate is more than 100 µM; with RPMI-8226 leukemia, 54.8 µM; in the test with RXF 393 renal it was more than 100 µM; with UACC-257 melanoma, more than 100 µM; in the test on UO-31 renal, 58.5 µM.

As to `O=C1CCCCCC1CC(Sc1ccccc1)Sc1ccccc1` (stereo unspecified), the TGI with A498 renal, in the test with A549 NSCLC, with ACHN renal, in the test on DU-145 prostate, with EKVX NSCLC and in the test on HS 578T breast was more than 100 µM each time. Also, the TGI with KM12 colon, with M14 melanoma, in the test on MDA-MB-231 breast, in the test with OVCAR-4 ovarian, with OVCAR-8 ovarian and in the test on PC-3 prostate was more than 100 µM in each case. The TGI in the test on RPMI-8226 leukemia, in the test with RXF 393 renal, with SK-MEL-5 melanoma, with SK-OV-3 ovarian, in the test with UACC-257 melanoma and in the test with UO-31 renal was more than 100 µM in each case.

Turning to `COc1ccc([C@]23CCN(S(=O)(=O)c4ccc(C)cc4)[C@H]2[C@H](CO)C2(CC3)OCC(C)(C)CO2)cc1OC`, the TGI in the test on A498 renal, in the test on A549 NSCLC, with ACHN renal, in the test with BT-549 breast, with DU-145 prostate and with EKVX NSCLC was more than 100 µM throughout. Besides, the TGI in the test with HCT-116 colon, with KM12 colon, with M14 melanoma, in the test with MDA-MB-231 breast, in the test on OVCAR-4 ovarian and in the test with OVCAR-8 ovarian was more than 100 µM in each case. Moreover, the TGI in the test with PC-3 prostate, in the test with RPMI-8226 leukemia, in the test with RXF 393 renal, in the test with SK-MEL-5 melanoma, in the test on SK-OV-3 ovarian and in the test with UACC-257 melanoma was more than 100 µM each time. The TGI in the test with UO-31 renal is more than 100 µM.
